Experiment [1] is described as follows: Reducing Power (RP) assay. The conditions noted are these: molar equivalents of reference compound. From the text:
The results of the evaluation of the electron ability transfer of the tested compound were expressed as molar equivalents of the reference compound per one mol of the tested compound using the formula: % of control activity=sample absorbance/reference absorbance×100 In the Reducing Power (RP) assay, the tested compounds reduce ferric ions from potassium ferricyanide, forming ferrocyanide, which produces a blue complex. The protocol used is an adaptation of previously reported methodologies. […] The tubes were sealed and incubated for 20 min in a water bath at 50 °C. […] Subsequently, 250 µL of the resulting solutions were mixed with 140 µL of FeCl3 solution (0.1% w/v) and 1000 µL of distilled water, and the absorbance of the resulting solutions was measured at λ = 695 nm.

Experiment [2] is described as follows: Ferrous ions chelation assay (ferrozine). On the procedure:
Solutions of the tested compounds or ethylenediaminetetraacetic acid disodium salt (EDTA-Na2), used as a positive control, were thoroughly mixed with 0.5 mL of FeSO4 (0.125 mM) and 0.5 mL of ferrozine (0.315 mM). After a 10-min incubation in the dark at room temperature, the absorbance was measured at λ = 562 nm.

The nature of experiment [3]: Ferric Reducing Antioxidant Potential (FRAP) assay. As to conditions: molar equivalents of reference compound. From the text:
The results of the evaluation of the electron ability transfer of the tested compound were expressed as molar equivalents of the reference compound per one mol of the tested compound using the formula: % of control activity=sample absorbance/reference absorbance×100 The Ferric Reducing Antioxidant Potential (FRAP) assay measures the ability of an antioxidant to transfer an electron to Fe^3+, converting it to Fe^2+. […] The solutions were thoroughly mixed in the dark, and their absorbance was measured spectrophotometrically at λ = 593 nm.

Experiment [4] can be described thus: Indirect 1O2 scavenging assay (ICG photo-generator, DPBF probe). The conditions noted are these: 10^−5 M ICG and scavenger, 785 nm laser, 100 s. On the procedure:
The ^1O2 scavenging assay was employed using a previously established indirect protocol from our research group. In brief, indocyanine green (ICG), from Sigma–Aldrich (St. Louis, MO, USA), was utilized to induce ^1O2 production in the presence of 5a and 5b. Ascorbic acid was used as a reference antioxidant agent, and a blank sample without ^1O2 scavengers was prepared. The reaction mixtures were exposed to a Micro Raman System R-3000 (Photonitech, Singapore, Singapore) laser diode,(λ = 785 nm, 190 mW power) for a total time of 100 s. To evaluate the ^1O2 scavenging activity of the compounds 5a,b, the degradation of 1,3-diphenylisobenzofuran (DPBF), obtained from Alfa Aesar (Haverhill, MA, USA), was measured using a V-730 spectrophotometer (Jasco International Co., Ltd., Tokyo, Japan). To determine the ^1O2 quantum yields (Φ(^1O2)) of ICG in the presence of the studied molecules, the following equation was used: Φ(^1O2) = Φ(^1O2) ^ICG × ((S × F^ICG)/(S^ICG × F)), where S represents the slope of the absorbance difference of DPBF over time, F is the absorption correction factor (F = 1 − 10^−OD), and OD is the optical density at the excitation wavelength, λ = 785 nm. The Φ(^1O2) equal to 15.0% of free ICG was used as a reference. The concentrations utilized in the experiment were 0.1 mM for DPBF and 10^−5 M for ICG and the ^1O2 scavengers. Free DPBF was used as a control.
The efficacy of compounds 5a,b against ^1O2 was assessed using an indirect approach. ICG was used as a photo-induced ^1O2 generator alongside DPBF, serving as an indirect chemical probe capable of characterizing ^1O2 release in solution. This setup allowed us to evaluate the ^1O2 scavenging capacity of the tested molecules and compare their activity to a reference compound, specifically ascorbic acid. The samples were exposed to 785 nm laser radiation, and at 10-s intervals after irradiation, their UV-Vis absorption spectra were measured and analyzed (Figure 9). Subsequently, we determined the ^1O2 quantum yields (Φ(^1O2)) of ICG in the presence of 5a,b and ascorbic acid, using the Φ(^1O2) of free ICG of 15.0% as reference.

Experiment [5] deals with rat microsomal membrane lipid peroxidation. Nature of the experiment: Lipid peroxidation inhibition assay (LPI), 2-thiobarbituric acid method. Format: biochemical. As to conditions: for IC50: ascorbic acid/Fe^2+ system, 37 °C, 45 min. The protocol:
Rat liver microsomes were homogenized in saline, and the resulting homogenates were centrifuged at 9000× g for 20 min at 4 °C to remove cell debris. The supernatant underwent ultracentrifugation at 110,000× g for 40 min at 4 °C. The pelleted microsomal fraction was subsequently washed with saline via another round of ultracentrifugation under identical conditions. Thereafter, the pellet was resuspended in Tris-HCl buffer (pH 7.4) to achieve a concentration equivalent to 0.5 g liver per mL and was stored until further analysis (at −80 °C). For the assay, the microsomal preparation was thermally inactivated by incubation at 90 °C for 90 s, then homogenized again and diluted to a final concentration equivalent to 4 mM fatty acid equivalents. […] All mixtures were incubated at 37 °C under air with continuous shaking. […] This was followed by heating at 90 °C for 20 min and centrifugation at 3000 rpm for 15 min. As a result of the breakdown of unsaturated fatty acids, malondialdehyde reacts with the 2-thiobarbituric acid to produce a pink compound due to the formation of a Schiff base. The extent of lipid peroxidation was measured spectrophotometrically at 535/600 nm, which is proportional to the amount of the chromogen reaction product formed between 2-thiobarbituric acid and malondialdehyde. The determinations were performed in triplicate, and the standard deviation was within ±10% of the mean value.

Structures are written as SMILES.

The term IC50 denotes the concentration that inhibits the measured activity by half. Consider `C/C=C/C=N/Nc1nc(-c2ccc(O)c(O)c2)cs1.Cl` [Compound 5a, 4-(2-(2-((1E,2E)-but-2-en-1-ylidene)hydrazineyl)thiazol-4-yl)benzene-1,2-diol hydrochloride], for which, in experiment [1], the “RP Eq Ascorbic Acid” value is 2.55 Eq Ascorbic Acid. Besides, the “RP Eq Trolox” value in experiment [1] is 2.12 Eq Trolox. For the same molecule, the “% of ferrous ions chelation” value in experiment [2] (50 nM), in experiment [2] (100 nM), in experiment [2] (150 nM), in experiment [2] (175 nM) and in experiment [2] (200 nM) was “− (less than 5% chelation activity)” throughout. The “FRAP Eq Trolox” value in experiment [3] is 1.49 Eq Trolox. In addition, the “^1O2 quantum yield Φ(^1O2) of ICG in the presence of the scavenger” value in experiment [4] came out at 11.1%. The “fold more active than Trolox in lipid peroxidation inhibition” value in experiment [5] is “approximately 7.5 fold”. Also, the IC50 in experiment [5] was determined as 3.34 µM.
For `CC1=C(/C=C/C(C)=N/Nc2nc(-c3ccc(O)c(O)c3)cs2)C(C)(C)CCC1.Cl` [Compound 5b, 4-(2-(2-((2E,3E)-4-(2,6,6-trimethylcyclohex-1-en-1-yl)but-3-en-2-ylidene) hydrazineyl)thiazol-4-yl)benzene-1,2-diol hydrochloride], the “RP Eq Ascorbic Acid” value in experiment [1] turned out to be 1.90 Eq Ascorbic Acid. Further, the “RP Eq Trolox” value in experiment [1] is given as 1.58 Eq Trolox. For the same molecule, the “% of ferrous ions chelation” value in experiment [2] (50 nM), in experiment [2] (100 nM), in experiment [2] (150 nM), in experiment [2] (175 nM) and in experiment [2] (200 nM) was “− (less than 5% chelation activity)” in each case. Also, the “FRAP Eq Trolox” value in experiment [3] is given as 1.39 Eq Trolox. For the same molecule, in experiment [4], the “^1O2 quantum yield Φ(^1O2) of ICG in the presence of the scavenger” value was determined as 11%. This molecule also came in with an IC50 in experiment [5] of 12.9 µM.

Source of the values: PMC12189671, “Antioxidant Activity and Cytotoxicity Evaluation of New Catechol Hydrazinyl-Thiazole Derivatives as Potential Protectors in Retinal Degenerative Processes” (Antioxidants, 2025).
